Test system: HeLa cells
Assay: Mitotic spindle immunofluorescence (tubulin) in transfected HeLa cells
Assay type: cell-based
Conditions: tubulin labeling
Method: HeLa cells transfected with wild type survivin (WT) or survivin(T34A) (T34A), were fixed in microtubule-stabilizing buffer (Li et al., 1998), and labeled with mAb 20C6 to […] -tubulin followed by FITC-conjugated goat anti-mouse IgG. Images were analyzed by confocal microscopy as described in FIG. 2C.
Transfection experiments. For transient transfection, HeLa cells in C-6 tissue culture plates (Costar, Cambridge, Mass.) at ˜60-70% confluency, were incubated in 1 ml of serum-free OptiMEM medium (Life Technologies, Gaithersburg, Md.) for 20 min, and transfected with 2.5 μg of the various plasmid cDNAs plus 9 μl Lipofectamine (Life Technologies). After a 5 h incubation at 37° C., the mixture was aspirated and substituted with complete growth medium for 48-72 h. To generate stable YUSAC-2 transfectants, a survivin(T34A) cDNA was inserted into the HindIII-SpeI sites of the pTet-splice vector (Dr. D. Schatz, Yale University School of Medicine), downstream of the regulatory sequences of the Tet-resistance operon (TetO). YUSAC-2 cells were transfected with 0.8 μg pTet-T34A, 0.8 μg of the transactivation/selection plasmid ptTA-Neo and 5 μl Lipofectamine in 1 ml of OptiMem. […] Gated GFP-expressing cells were analyzed for DNA content by flow cytometry on a FACSort (Becton Dickinson, San Jose, Calif.) using a Cell Quest software. […]

With “survivin(T34A): dominant-negative, non-phosphorylatable survivin mutant with Thr34→Ala substitution, expressed from transfected cDNA (also HA- or GFP-tagged)” the mitotic spindle morphology was “profound dysregulation of mitotic transitions”.

Reference: patent US7553821B2, “Methods for selectively modulating survivin apoptosis pathways” (Yale University, priority 2000, dated 2009)
